These results are taken from US20180186753A1 (published 2018).

Values joined by “and” are separate entries in the source; they are usually repeats but may differ in a detail not shown here. Equal values may be shown once.

In the case of `CC(=O)SCCC(=O)Nc1c[nH]nc1Cl`, the melting point lay in the range of 140 to 143 °C. `CCN(C(=O)CCSC(C)=O)c1c[nH]nc1Cl` registered a melting point of 98 to 99 °C. With `CC(=O)SCCC(=O)Nc1cn(-c2cccnc2)nc1Cl` the figure was 163 to 166 °C and 168 to 171 °C. On to `CCN(C(=O)CCS)c1cn(-c2cccnc2)nc1Cl`, for which the melting point is 70 to 73 °C. With `C=CC(=O)Nc1c[nH]nc1Cl`, the melting point is 182 °C (dec.). `C=CC(=O)N(CC)c1c[nH]nc1Cl` registered a melting point of 156 to 160 °C.

As for `C=CC(=O)Nc1cn(-c2cccnc2)nc1Cl`, the melting point lay in the range of 148 to 153 °C.
